Square brackets hold non-standard residues; d marks the D form. Ends that are not written are not given here.

This is an account of results in patent US10023615B2, “Efficient transport into white blood cells” (priority 2008, dated 2018).

For one data set, the system named is TNBS induced colitis. Nature of the data set: TNBS induced colitis (IBD study). The format is in vivo. As to the method: b) Constitution of Test Groups and Dose Levels • The table below lists the experimental groups comprising the study.
c) Test Procedures • Colitis was induced by administration of TNBS dissolved in 50% Ethanol • All animals were then treated with doses of XG-102 in the range of 0.1 to 1000 μg/kg, […], as a single or repeated daily doses (see above).
d) Observations and Examinations • i) Clinical Signs • Throughout the duration of the above experiment, careful clinical examinations were carried out and recorded. Observations included changes external appearance, e.g. of the skin, fur, eyes, mucous membranes, occurrence of secretions and excretions (e.g. diarrhea), and autonomic activity. Changes in gait, posture and response to handling, as well as the presence of bizarre behavior, tremors, convulsions, sleep and coma were also noted. • ii) Body Weights • Determination of individual body weight of animals was made on a daily basis. • iii) Clinical Assessment of Colitis • Body weight, stool consistency and bleeding per rectum were all recorded daily and served as the parameters of disease severity score:
• iv) Gross Pathology of the Colon • On the last day of the experiment, animals were euthanized and the colon was removed for gross pathology evaluation according to the following score: […]

In another data set the test system is liver and lymph nodes. Nature of the data set: FITC-XG-102 and FITC-D-TAT localization in liver and lymph nodes. The format is in vivo, Sprague Dawley rat. Conditions: 1 mg/kg i.v., 6 h post-injection.
Source text: FIG. 22A and FIG. 22B: 22A: FITC-XG-102 (SEQ ID NO: 233) localization in the liver. Three cellular fields of FITC-XG-102-labelled cells isolated from liver. From left to right, FITC-labelled XG-102, corresponding DAPI nuclear stain and merge of both images. […] Typicall Kupfer cell shape and nucleus can be differentiated from hepatocytes by their shape. Small and triangle in Kupfer cells in contrast to big exagonal, well organized hepatocytes. Obj 63; bar, 20 μm. 22B: FITC-D-TAT (SEQ ID NO: 4) localization in the liver. Two cellular fields of FITC-D-TAT-labelled cells isolated from liver. From left to right, FITC-labelled XG-102, corresponding DAPI nuclear stain and merge of both images. […] Typicall Kupfer cell shape and nucleus can be differentiated from hepatocytes by their shape. Small and triangle in Kupfer cells in contrast to big exagonal, well organized hepatocytes. Obj 63; bar, 20 μm.
(§1) FIG. 23A and FIG. 23B: 23A: FITC-XG-102 (SEQ ID NO: 233) localization in lymph nodes. Cellular field of FITC-XG-102-labelled cells isolated from lymph nodes. Upper panels from left to right: the composite image is organized with one cellular field stained with FITC-XG-102 (left), Dapi for nuclear stain (middle) and the corresponding merged image (right). In the lower panels, a zoomed cell cluster of each image is illustrated. […] The absence of FITC staining in the lymphoid follicles allows distinguishing from the medullary corde and cortex area. Medullary zone seems to have incorporated the FITC-XG-102, composed in majority by macrophages. Obj 10; bar, 50 μm.
as §1, with “23B:” for “FIG. 23A and FIG. 23B:”, “FITC-D-TAT” for “23A: FITC-XG-102”, “4)” for “233)”, “FITC-D-TAT-labelled” for “FITC-XG-102-labelled”, “FITC-D-TAT” for “FITC-XG-102”, “FITC-D-TAT,” for “FITC-XG-102,”
Female Sprague Dawley rat was injected i.v. in the tail with either 1 mg/kg of FITC-XG102 (SEQ ID NO:233) or 1 mg/kg FITC-D-TAT (SEQ ID NO:4). Rats were sacrified 6 h post-injection using a lethal dose of sodium pentobarbital (150 mg/kg i.p.). For histological analysis and during narcosis, rats were perfused through the heart with 4% paraformaldehyde (PFA) in PBS. Organs (liver and lymph nodes) were cryoprotected in sucrose (30% in PBS), frozen using liquid isopentane and kept for further cryostat sectioning. Sections of 14 μm were incubated for 5 min in PBS before Hoechst staining for 2 min at RT (1 μg/ml). […]

The test system of a further data set is Monocytes (CD14). Description: Flow cytometry of FITC-transporter content in primary human white blood cells: monocytes. The format is cell-based. Conditions: 1 uM, 30 min, 37° C. An excerpt:
(§2) Primary human white blood cells (WBC) were obtained from whole blood after red blood cell lysis. […] Cells containing D-TAT-FITC and r3-L-TAT-FITC were finally analysed by flow cytometry to measure their respective transporter content.
In general terms: A flow cytometer gives signals particle by particle.

The subject of another data set is Lymphocytes B (CD19). Description: Flow cytometry of FITC-transporter content in primary human white blood cells: lymphocytes B. The format is cell-based. The settings on record: 1 uM, 30 min, 37° C.
Source text: as §2

For a further data set, the system named is Neutrophils (CD15). Description: Flow cytometry of FITC-transporter content in primary human white blood cells: neutrophils. The format is cell-based. The settings on record: 1 uM, 30 min, 37° C.
Source text: as §2

For the next data set, the system named is Lymphocytes T (CD3). Description: Flow cytometry of FITC-transporter content in primary human white blood cells: lymphocytes T. The format is cell-based. The settings on record: 1 uM, 30 min, 37° C.
Source text: as §2

The subject of another data set is U937 cells. Nature of the data set: Intracellular concentration of transporter constructs subsequent to uptake into U937 cells. The format is cell-based. Conditions: U937 cells, 10 μM construct. As to the method: 9. Determination of Intracellular Concentration of Specific Transporter Constructs Subsequent to Uptake (Internalization) of these Peptides into U937 Cells • According to a further experiment, the concentration of specific transporter constructs subsequent to uptake (internalization) of these peptides into U937 cells were determined.

The test system of data set [1] is HL-60 cell line (Leukemia). Description: Time dependant internalization of FITC-labeled TAT derived transporter constructs into HL-60 cells. The format is cell-based. The settings on record: 10 μM; 30 min, 1, 6 or 24 hours. As for the experimental part: FIG. 3: depicts the results of the time dependant internalization (uptake) of FITC-labeled TAT derived transporter constructs into cells of the HL-60 cell line. […] HL-60 cells were incubated 30 min, 1, 6 or 24 hours with […] of the TAT-derivative transporters. The cells were then washed twice with an acidic buffer (0.2 M Glycin, 0.15 M NaCl, pH 3.0) and twice with PBS. Cells were broken by the addition of RIPA lysis buffer. The relative amount of internalized peptide was then determined by reading the fluorescence intensity (Fusion Alpha plate reader; PerkinElmer) of each extract followed by background substraction and protein content normalization. […]

The subject of another data set is U937 lymphoma cells. Nature of the data set: Uptake (internalization) of FITC-labeled TAT derived transporter constructs in U937 cells, fluorescence plate reader. Conditions: 10 μM, U937, Lymphoma, 24 h. The format is cell-based.

Protocol for U937 lymphoma cells: Cells were plated into poly-DL-lysine coated dishes at a concentration of 1×10^6 cells/ml. Plates were then incubated for 24 h at 37° C., 5% CO2, and 100% relative humidity prior to the addition of a known concentration of peptide. After peptide addition, the cells were incubated 30 min, 1, 6 or 24 h at 37° C., 5% CO2, and 100% relative humidity. Cells were then washed twice with an acidic buffer (Glycin 0.2 M, NaCl 0.15 M, pH 3.0) in order to remove the cell-surface adsorbed peptide (see Kameyama et al., (2007), Biopolymers, 88, 98-107). […] The cell wash using an acidic buffer was thus employed to remove the cell-surface adsorbed peptides. […] Cells were broken by the addition of the RIPA lysis buffer. The relative amount of internalized peptide was then determined by fluorescence after background substraction and protein content normalization. • The steps are thus: 1. […] Analysis of peptide internalization with a fluorescence plate reader • f) Cell Culture and Peptide Treatment • (1) The 6 well culture plates are coated with 3 ml of Poly-D-Lys (Sigma P9011; 25 μg/ml in PBS), the 24 well plates with 600 μl and the 96 well plates with 125 μl and incubated for 4 h at 37° C., CO2 5% and 100% relative humidity. • (2) After 4 hours the dishes were washed twice with 3.5 ml PBS, 700 μl or 150 μl PBS for the 6, 24 or 96 well plates, respectively. • (3) The cells were plated into the dishes in 2.4 ml medium (RPMI) at plating densities of 1′000′000 cells/ml for suspension cells. After inoculation, the plates were incubated at 37° C., 5% CO2 and 100% relative humidity for 24 hours prior to the addition of the peptide. Adherent cells should be at a density of 90-95% the day of treatment and were plated in DMEM :
• (4) The cells were treated with the desired concentration of FITC labeled peptide (stock solution at a concentration of 10 mM in H2O). • (5) Following peptide addition, the cells were incubated 0 to 24 hours (e.g. 30 min, 1, 6 or 24 hours) at 37° C., CO2 5% and 100% relative humidity. • Acidic Wash and Cellular Extracts: • (6) The extracts were cooled on ice. • Suspension cells (or cells, which don attach well to the dish): • Transfer the cells in ? […] To recover the maximum of cells, wash the dish with 1 ml of PBS. • Harvest the cells 2 min at 2400 rpm max. • Suspend the cells in 1 ml cold PBS. • Transfer the cells into a coated “Eppendorf tube” (coated with 1 ml of poly D-Lys for 4 hours and washed twice with 1 ml PBS). • Wash three times with 1 ml of cold acidic wash buffer and centrifuge 2 min at 2400 rpm max. Beware of the spreading of the cells in the “eppendorf”. • Wash twice with 1 ml cold PBS to neutralize. • Add 50 μl of lysis RIPA Buffer. • Incubate 30 min-1 h on ice with agitation. • Adherent Cells: • Wash three times with 3 ml, 1 ml or 200 μl (for 6, 24 or 96 well plates, respectively) of cold acidic wash buffer. Beware of the cells who detach from the dish. • Wash twice with 1 ml cold PBS (for 6, 24 or 96 well plates, respectively) to neutralize. • Add 50 μl of lysis RIPA buffer. • Incubate 30 min-1 h on ice with agitation. • Scrap the cells with a cold scrapper. The 24 and 96 well plates were directly centrifuged at 4000 rpm at 4° for 15 min to remove the cellular debris. Then the supernatants (100 or 50 ml respectively for the 24 or 96 well plates) were directly transferred in a dark 96 well plated.

Consider `O=C(O)c1cc(/N=N/c2ccc(S(=O)(=O)Nc3ccccn3)cc2)ccc1O` [Sulfasalazine, reference compound], for which the clinical score result in the data set with TNBS induced colitis (any dose, route or time schedule (single dose or daily dose)) is given as “reduction in the clinical score”. Moreover, the gross pathology score result in the data set with TNBS induced colitis (end of the study) was “effective in reducing the gross pathology completely”.

As for “FITC-XG-102: FITC-labelled XG-102 (SEQ ID NO: 233) ([dD][dQ][dS][dR][dP][dV][dQ][dP][dF][dL][dN][dL][dT][dT][dP][dR][dK][dP][dR][dP][dP][dR][dR][dR][dQ][dR][dR][dK][dK][dR]G; not fully specified (N-terminus, C-terminus); also: FITC label, site not given here)”, in the data set with liver and lymph nodes, the “localization in lymph nodes” value is “decorates subcapsular sinus macrophages and constitutive migrating alveolar macrophages”; the “localization in the liver” value is on record as “efficiently decorates Kupfer cells in contrast to hepatocytes which only show a background staining level”.

For the compound FITC-βA-rKKRrQRRr [r3-L-TAT-FITC], in the data set with Monocytes (CD14), the “percentage of cells gated, lower left quadrant” value (“percentage … lower left quadrant” below) came to 40.77%; the “percentage of cells gated, lower right quadrant” value turned out to be 36.24%; the “percentage of cells gated, upper left quadrant” value (“percentage … upper left quadrant” for short) is recorded as 6.34%; the “percentage of cells gated, upper right quadrant” value worked out at 16.65%. For the same compound, in the data set on Lymphocytes B (CD19), the “percentage … lower left quadrant” value was found to be 61.92%; the “percentage of cells gated, lower right quadrant” value is given as 8.48%; the “percentage … upper left quadrant” value came out at 27.83%; the “percentage of cells gated, upper right quadrant” value is 1.76%. In the data set on Neutrophils (CD15), the “percentage … lower left quadrant” value is listed as 49.75%; the “percentage of cells gated, lower right quadrant” value turned out to be 24.76%; the “percentage … upper left quadrant” value was found to be 11.74%; the “percentage of cells gated, upper right quadrant” value stood at 13.75%. Further, in the data set with Lymphocytes T (CD3), the “percentage … lower left quadrant” value is on record as 50.36%; the “percentage of cells gated, lower right quadrant” value turned out to be 20.04%; the “percentage … upper left quadrant” value came out at 20.64%; the “percentage of cells gated, upper right quadrant” value is listed as 8.96%.

On to “RKKRRQRRR (Description of sequence trafficking sequence L-TAT (s1a) (see Table 1)) [reference compound]”, for which the “intracellular concentration of transporter construct subsequent to uptake” value in the data set with U937 cells (2 h) was 1.20; in the data set with U937 cells (4 h) it was 1.38; in the data set with U937 cells (6 h) it was 1.07; in the data set with U937 cells (24 h) it was 0.5. In addition, the “time dependant internalization (uptake)” value in data set [1] is “doesn't accumulate over a period of 24 hours”. Also, in the data set on U937 lymphoma cells, the “uptake (internalization)” value was “significantly lower uptake”.
